Test results: publication PMC7045412, “Natural biased signaling of hydroxycarboxylic acid receptor 3 and G protein-coupled receptor 84” (Cell Communication and Signaling : CCS, 2020)

Key:
[1] = biological target: T1, hydroxycarboxylic acid receptor 3 (HCA3) (Homo sapiens, UniProt P49019); assay: DMR ([…]) in receptor-transfected CHO-K1 cells; format: cell-based
T1 construct: gene HCAR3

[2] = biological target: G protein-coupled receptor 84 (GPR84) (Homo sapiens, UniProt Q9NQS5); assay: cAMP inhibition, DMR and ERK assays in receptor-transfected CHO-K1/HEK293-T cells; format: cell-based
Sequence of G protein-coupled receptor 84 (GPR84) (Q9NQS5 whole entry): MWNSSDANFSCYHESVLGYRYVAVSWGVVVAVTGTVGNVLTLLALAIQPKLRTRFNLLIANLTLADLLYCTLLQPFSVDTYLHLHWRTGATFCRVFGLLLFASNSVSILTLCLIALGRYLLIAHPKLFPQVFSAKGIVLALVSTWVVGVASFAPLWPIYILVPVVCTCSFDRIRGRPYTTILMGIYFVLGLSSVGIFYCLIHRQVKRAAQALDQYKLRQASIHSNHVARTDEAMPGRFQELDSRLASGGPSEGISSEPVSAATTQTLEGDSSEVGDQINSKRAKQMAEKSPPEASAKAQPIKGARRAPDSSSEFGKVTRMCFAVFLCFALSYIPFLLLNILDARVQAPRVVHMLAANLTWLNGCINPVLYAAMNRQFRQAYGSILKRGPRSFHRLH

T1 sequence (P49019 whole entry): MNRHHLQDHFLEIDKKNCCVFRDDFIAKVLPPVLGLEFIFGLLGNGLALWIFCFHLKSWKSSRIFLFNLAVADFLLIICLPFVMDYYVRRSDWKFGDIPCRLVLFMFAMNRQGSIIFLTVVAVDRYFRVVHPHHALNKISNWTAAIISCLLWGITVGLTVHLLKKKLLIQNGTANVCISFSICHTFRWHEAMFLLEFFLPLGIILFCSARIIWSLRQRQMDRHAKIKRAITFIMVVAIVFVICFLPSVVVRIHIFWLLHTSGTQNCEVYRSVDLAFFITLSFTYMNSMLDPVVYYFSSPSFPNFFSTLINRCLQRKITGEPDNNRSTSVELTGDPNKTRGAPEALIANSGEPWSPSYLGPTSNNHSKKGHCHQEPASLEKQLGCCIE

SMILES | DMR (250 μM) in receptor-transfected CHO-K1 cells [1] | EC50 [2]
N[C@H](Cc1ccccc1)C(=O)O [D-Phe, D-phenylalanine] | dynasore affected the DMR-response of human and gorilla HCA3 to D-Phe and L-PLA in a similar manner | 
CCCCCCCCCC(=O)O [C10, decanoic acid] |  | C10 and 3HDec activated GPR84.
CCCCCCCC(O)CC(=O)O (stereo not drawn) [3HDec, 3-hydroxydecanoic acid] |  | In contrast, C10 and 3HDec but not 3HO activated GPR84
